{
  "source": "paper PMC10136147",
  "about": "“Bacillus subtilis YtpP and Thioredoxin A Are New Players in the Coenzyme-A-Mediated Defense Mechanism against Cellular Stress” (Antioxidants, 2023)",
  "key": {"YtpP [1]": {"molecular_target": "YtpP (Bacillus subtilis, UniProt O34357, C28S)", "sequence (O34357 whole entry C28S)": "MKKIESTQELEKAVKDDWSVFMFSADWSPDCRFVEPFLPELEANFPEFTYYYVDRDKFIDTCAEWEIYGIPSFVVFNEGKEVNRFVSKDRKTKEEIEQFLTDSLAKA", "assay": "anti-CoA Western blot after incubation with CoAlated protein", "format": "binding", "settings": "covalent; CoA transferred from the CoAlated protein, 30 min, 37 C"}, "TrxA": {"molecular_target": "T1, TrxA (Bacillus subtilis, UniProt P14949)", "T1 construct": "about 11 kDa, N-terminal 6xHis tag (pET28a), E. coli BLR(DE3)", "T1 sequence (P14949 1-104)": "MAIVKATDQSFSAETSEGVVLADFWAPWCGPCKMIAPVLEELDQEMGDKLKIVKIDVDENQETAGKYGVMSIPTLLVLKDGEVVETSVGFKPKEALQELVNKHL", "assay": "HPLC ([…] nm) of released CoA; anti-CoA Western blot", "format": "biochemical", "settings": "CoA released from 6 uM CoA-MsrA or CoA-PRDX5 by 60 uM enzyme, 1 h, 37 C"}, "MsrA": {"molecular_target": "T2, MsrA (Corynebacterium diphtheriae, UniProt Q6NEL2)", "T2 construct": "26 kDa", "T2 sequence (Q6NEL2 1-220)": "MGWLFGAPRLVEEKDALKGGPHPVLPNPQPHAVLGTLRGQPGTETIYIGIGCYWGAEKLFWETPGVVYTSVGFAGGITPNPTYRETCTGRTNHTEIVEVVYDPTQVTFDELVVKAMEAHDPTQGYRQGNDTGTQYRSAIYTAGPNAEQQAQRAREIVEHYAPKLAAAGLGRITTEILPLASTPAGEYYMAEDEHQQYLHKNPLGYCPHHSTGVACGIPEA", "assay": "anti-CoA Western blot after in vitro CoAlation", "format": "binding", "settings": "covalent mixed disulfide with cysteine; protein:CoA:H2O2 1:3:10, RT, 30 min; monomer and oligomer bands"}, "GAPDH": {"molecular_target": "T3, GAPDH (Staphylococcus aureus, UniProt Q6GIL8)", "T3 construct": "gene gapA1", "T3 sequence (Q6GIL8 1-336)": "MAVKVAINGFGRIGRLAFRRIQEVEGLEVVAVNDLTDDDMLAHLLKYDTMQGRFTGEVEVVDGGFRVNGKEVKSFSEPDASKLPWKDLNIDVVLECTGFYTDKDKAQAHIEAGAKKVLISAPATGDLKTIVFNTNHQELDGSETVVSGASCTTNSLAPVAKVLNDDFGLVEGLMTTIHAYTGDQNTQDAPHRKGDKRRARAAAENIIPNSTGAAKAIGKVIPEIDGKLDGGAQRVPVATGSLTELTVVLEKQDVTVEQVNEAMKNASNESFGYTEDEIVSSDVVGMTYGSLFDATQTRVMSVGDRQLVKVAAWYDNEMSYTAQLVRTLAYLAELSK", "assay": "anti-CoA ELISA and Western blot after in vitro CoAlation", "format": "binding", "settings": "covalent mixed disulfide with cysteine; protein:CoA:H2O2 1:3:10, RT, 30 min; reversed by 10 mM DTT"}, "PRDX5": {"molecular_target": "T4, PRDX5 (Homo sapiens, UniProt P30044)", "T4 sequence (P30044 54-214)": "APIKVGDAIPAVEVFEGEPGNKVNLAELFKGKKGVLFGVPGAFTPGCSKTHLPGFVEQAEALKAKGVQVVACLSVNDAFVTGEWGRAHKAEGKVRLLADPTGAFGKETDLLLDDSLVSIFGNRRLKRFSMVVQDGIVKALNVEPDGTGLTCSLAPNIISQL", "assay": "anti-CoA Western blot after in vitro CoAlation", "format": "binding", "settings": "covalent mixed disulfide with cysteine; protein:CoA:H2O2 1:3:10, RT, 30 min; monomer and oligomer bands"}, "YtpP [2]": {"molecular_target": "T5, YtpP (Bacillus subtilis, UniProt O34357)", "T5 sequence (O34357 1-107)": "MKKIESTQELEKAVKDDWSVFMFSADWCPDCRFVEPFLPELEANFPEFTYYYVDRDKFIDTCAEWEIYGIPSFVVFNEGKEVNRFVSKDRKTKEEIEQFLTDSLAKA", "assay": "HPLC ([…] nm) of released CoA; anti-CoA Western blot", "format": "biochemical", "settings": "CoA released from 6 uM CoA-MsrA or CoA-PRDX5 by 60 uM enzyme, 1 h, 37 C"}},
  "data": [
    {"smiles": "CC(C)(COP(=O)(O)OP(=O)(O)OC[C@H]1O[C@@H](n2cnc3c(N)ncnc32)[C@H](O)[C@@H]1OP(=O)(O)O)[C@@H](O)C(=O)NCCC(=O)NCCS", "note": "[CoA]", "values": [
      {"measurement": "anti-CoA Western blot after incubation with CoAlated protein", "setting": "YtpP [1]", "result": "“Δ” represents either CoAlated YtpP C28S or YtpP C31S, or CoAlated TrxA C29S"},
      {"measurement": "HPLC (254 nm) of released CoA; anti-CoA Western blot", "setting": "TrxA", "result": "Following deCoAlation of both substrates by YtpP and TrxA, CoA release was monitored."},
      {"measurement": "anti-CoA Western blot after in vitro CoAlation", "setting": "MsrA", "result": "anti-CoA WB was used to confirm the CoAlation of both proteins"},
      {"measurement": "anti-CoA ELISA and Western blot after in vitro CoAlation", "setting": "GAPDH", "result": "high signal was recorded due to the detection of CoA on the CoAlated protein"},
      {"measurement": "anti-CoA Western blot after in vitro CoAlation", "setting": "PRDX5", "result": "anti-CoA WB was used to confirm the CoAlation of both proteins"},
      {"measurement": "HPLC (254 nm) of released CoA; anti-CoA Western blot", "setting": "YtpP [2]", "result": "Following deCoAlation of both substrates by YtpP and TrxA, CoA release was monitored."}
    ]}
  ]
}
